Results as given in ChEMBL document CHEMBL5584314, “Identification of an m6A Natural Inhibitor, Lobeline, That Reverses Lenvatinib Resistance in Hepatocellular Tumors” (J Nat Prod, 2024).
The source made the active and inactive calls.

Assays:
[1] = target: N6-adenosine-methyltransferase catalytic subunit (Homo sapiens) (UniProt Q86U44); assay: Inhibition of METTL3 in human Huh-7 cells assessed as down regulation of m6A RNA level at 2 uM incubated for 72 hrs by colorimetric analysis; assay type: cell-based
Sequence of N6-adenosine-methyltransferase catalytic subunit (Homo sapiens) (Q86U44 whole entry): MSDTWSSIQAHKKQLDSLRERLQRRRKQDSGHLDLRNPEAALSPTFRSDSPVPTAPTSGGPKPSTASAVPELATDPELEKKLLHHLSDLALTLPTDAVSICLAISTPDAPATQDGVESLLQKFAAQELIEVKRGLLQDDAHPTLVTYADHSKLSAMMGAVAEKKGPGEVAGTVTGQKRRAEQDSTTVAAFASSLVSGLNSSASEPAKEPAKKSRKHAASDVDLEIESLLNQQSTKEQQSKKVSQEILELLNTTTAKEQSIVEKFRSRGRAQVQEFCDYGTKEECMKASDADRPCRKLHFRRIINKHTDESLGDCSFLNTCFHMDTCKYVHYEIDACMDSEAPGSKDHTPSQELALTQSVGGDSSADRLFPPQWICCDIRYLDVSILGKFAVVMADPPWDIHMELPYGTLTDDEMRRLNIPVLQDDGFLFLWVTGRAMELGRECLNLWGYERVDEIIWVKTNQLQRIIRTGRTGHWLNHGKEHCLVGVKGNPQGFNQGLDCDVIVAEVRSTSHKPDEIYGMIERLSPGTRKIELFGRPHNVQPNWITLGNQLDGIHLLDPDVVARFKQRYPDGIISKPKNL

[2] = tested on: Lenvatinib-resistant Hep3B/Len; assay: Antiproliferative activity against human Lenvatinib-resistant Hep3B/Len cells assessed as inhibition of clone formation ability at 5 uM preincubated for 72 hrs and measured after 7 to 10 days by crystal violet staining based assay; assay type: functional, cell-based; conditions: time 10-13 day
[3] = Toxicity in BALB/c nude mouse xenografted with human Lenvatinib-resistant Huh7/Len cells assessed as changes in organ index at 1.5 mg/kg, ip administered 5 times per week for 3 weeks; assay type: organism-based; conditions: in vivo, 504 h
[4] = target: N6-adenosine-methyltransferase catalytic subunit (Homo sapiens) (UniProt Q86U44); assay: Inhibition of METTL3 in human Lenvatinib-resistant Huh7/Len cells assessed as effect on HNF4A mRNA expression level at 2 uM incubated for 72 hrs by RT-PCR analysis; assay type: cell-based
[5] = tested on: Lenvatinib-resistant Huh7/Len; assay: Inhibition of cell migration in human Lenvatinib-resistant Huh7/Len cells at 5 uM incubated for 48 hrs by transwell assay; assay type: functional, cell-based
[6] = tested on: Lenvatinib-resistant Huh7/Len; assay: Antitumor activity against human Lenvatinib-resistant Huh7/Len cells xenografted in BALB/c nude mouse assessed as reduction in Ki-67 protein expression in tumor tissue at 1.5 mg/kg, ip cotreated with lenvatinib 5 times per week for 3 weeks by immunohistochemistry analysis relative to control; assay type: functional; parameters: scale not given: the % may be the effect or the level left
[7] = tested on: Lenvatinib-resistant Hep3B/Len; assay: Antiproliferative activity against human Lenvatinib-resistant Hep3B/Len cells assessed as inhibition of cell viability up to 40 uM after 72 hrs by CCK-8 assay; assay type: functional, cell-based
[8] = target: N6-adenosine-methyltransferase catalytic subunit (Homo sapiens) (UniProt Q86U44); assay: Inhibition of METTL3 in human Lenvatinib-resistant Huh7/Len cells assessed as effect on MYC mRNA expression level at 2 uM incubated for 72 hrs by RT-PCR analysis; assay type: cell-based
[9] = tested on: Lenvatinib-resistant Huh7/Len; assay: Antitumor activity against human Lenvatinib-resistant Huh7/Len cells xenografted in BALB/c nude mouse assessed as reduction in m6A level in tumor tissue at 1.5 mg/kg, ip 5 times per week for 3 weeks by immunohistochemistry analysis; assay type: functional, organism-based
[10] = target: N6-adenosine-methyltransferase catalytic subunit (Homo sapiens) (UniProt Q86U44); assay: Inhibition of METTL3 in human Lenvatinib-resistant Huh7/Len cells assessed as effect on FGFR3 mRNA expression level at 2 uM incubated for 72 hrs by RT-PCR analysis; assay type: cell-based
[11] = Toxicity in BALB/c nude mouse xenografted with human Lenvatinib-resistant Huh7/Len cells assessed as changes in organ index at 1.5 mg/kg, ip cotreated with lenvatinib 5 times per week for 3 weeks; assay type: organism-based; conditions: in vivo, 504 h
[12] = target: N6-adenosine-methyltransferase catalytic subunit (Homo sapiens) (UniProt Q86U44); assay: Inhibition of METTL3 in human Lenvatinib-resistant Huh7/Len cells assessed as effect on SLC7A11 mRNA expression level at 2 uM incubated for 72 hrs by RT-PCR analysis; assay type: cell-based
[13] = Toxicity in BALB/c nude mouse PDX model xenografted with human Lenvatinib-resistant HCC/Len cells assessed as changes in organ index at 1.5 mg/kg, ip cotreated with lenvatinib 5 times per week for 3 weeks; assay type: organism-based; conditions: in vivo, 504 h
[14] = target: N6-adenosine-methyltransferase catalytic subunit (Homo sapiens) (UniProt Q86U44); assay: Inhibition of METTL3 in human Lenvatinib-resistant Huh7/Len cells assessed as effect on AKT1 mRNA expression level at 2 uM incubated for 72 hrs by RT-PCR analysis; assay type: cell-based
[15] = Toxicity in BALB/c nude mouse xenografted with human Lenvatinib-resistant Huh7/Len cells assessed as changes in body weight at 1.5 mg/kg, ip cotreated with lenvatinib 5 times per week for 3 weeks; assay type: organism-based; conditions: in vivo, 504 h
[16] = target: N6-adenosine-methyltransferase catalytic subunit (Homo sapiens) (UniProt Q86U44); assay: Inhibition of METTL3 in human Lenvatinib-resistant Huh7/Len cells assessed as effect on TIBIM6 mRNA expression level at 2 uM incubated for 72 hrs by RT-PCR analysis; assay type: cell-based
[17] = target: N6-adenosine-methyltransferase catalytic subunit (Homo sapiens) (UniProt Q86U44); assay: Inhibition of METTL3 in human Lenvatinib-resistant Huh7/Len cells assessed as effect on TET1 mRNA expression level at 2 uM incubated for 72 hrs by RT-PCR analysis; assay type: cell-based
[18] = tested on: Lenvatinib-resistant Huh7/Len; assay: Antiproliferative activity against human Lenvatinib-resistant Huh7/Len cells assessed as inhibition of cell viability at 5 uM uM after 72 hrs in presence of lenvatinib by CCK-8 assay; assay type: functional, cell-based
[19] = Toxicity in BALB/c nude mouse PDX model xenografted with human Lenvatinib-resistant HCC/Len cells assessed as changes in body weight at 1.5 mg/kg, ip cotreated with lenvatinib 5 times per week for 3 weeks; assay type: organism-based; conditions: in vivo, 504 h
[20] = tested on: Lenvatinib-resistant Huh7/Len; assay: Antitumor activity against human Lenvatinib-resistant Huh7/Len cells xenografted in BALB/c nude mouse assessed as reduction in METTL3 protein expression at 1.5 mg/kg, ip 5 times per week for 3 weeks by Western blot assay; assay type: functional, organism-based
[21] = tested on: Lenvatinib-resistant Hep3B/Len; assay: Antiproliferative activity against human Lenvatinib-resistant Hep3B/Len cells assessed as inhibition of cell viability at 5 uM after 72 hrs in presence of lenvatinib by CCK-8 assay; assay type: functional, cell-based
[22] = Toxicity in BALB/c nude mouse PDX model xenografted with human Lenvatinib-resistant HCC/Len cells assessed as changes in organ index at 1.5 mg/kg, ip administered 5 times per week for 3 weeks; assay type: organism-based; conditions: in vivo, 504 h
[23] = tested on: Lenvatinib-resistant Huh7/Len; assay: Anticancer activity against human Lenvatinib-resistant Huh7/Len cells assessed as reduction in UBE3B protein expression at 2 uM by Western blot analysis; assay type: functional, cell-based
[24] = target: N6-adenosine-methyltransferase catalytic subunit (Homo sapiens) (UniProt Q86U44); assay: Inhibition of METTL3 in human Lenvatinib-resistant Huh7/Len cells assessed as effect on GATA3 mRNA expression level at 2 uM incubated for 72 hrs by RT-PCR analysis; assay type: cell-based
[25] = target: N6-adenosine-methyltransferase catalytic subunit (Homo sapiens) (UniProt Q86U44); assay: Binding affinity to METTL3 in human Huh-7 cells assessed as thermal stability at 44 to 64 degreeC at 2 uM incubated for 30 mins followed by […] analysis; assay type: cell-based
[26] = Toxicity in BALB/c nude mouse xenografted with human Lenvatinib-resistant Huh7/Len cells assessed as changes in body weight at 1.5 mg/kg, ip administered 5 times per week for 3 weeks; assay type: organism-based; conditions: in vivo, 504 h
[27] = target: N6-adenosine-methyltransferase catalytic subunit (Homo sapiens) (UniProt Q86U44); assay: Inhibition of METTL3 in human Lenvatinib-resistant Huh7/Len cells assessed as effect on DEK mRNA expression level at 2 uM incubated for 72 hrs by RT-PCR analysis; assay type: cell-based
[28] = target: N6-adenosine-methyltransferase catalytic subunit (Homo sapiens) (UniProt Q86U44); assay: Inhibition of METTL3 in human Lenvatinib-resistant Huh7/Len cells assessed as effect on EZH2 mRNA expression level at 2 uM incubated for 72 hrs by RT-PCR analysis; assay type: cell-based
[29] = Toxicity in BALB/c nude mouse PDX model xenografted with human Lenvatinib-resistant HCC/Len cells assessed as changes in body weight at 1.5 mg/kg, ip administered 5 times per week for 3 weeks; assay type: organism-based; conditions: in vivo, 504 h
[30] = tested on: Lenvatinib-resistant HCC/Len; assay: Antitumor activity against human Lenvatinib-resistant HCC/Len cells xenografted in BALB/c nude mouse model of PDX assessed as reduction in METTL3 protein expression at 1.5 mg/kg, ip 5 times per week for 3 weeks by Western blot assay; assay type: functional, organism-based
[31] = target: N6-adenosine-methyltransferase catalytic subunit (Homo sapiens) (UniProt Q86U44); assay: Inhibition of METTL3 in human Huh-7 cells assessed as down regulation of m6A RNA level at 2 uM incubated for 72 hrs by Dot blot assay; assay type: cell-based

CN1[C@@H](CC(=O)c2ccccc2)CCC[C@H]1C[C@H](O)c1ccccc1 [LOBELINE]
11%: inhibition [1]
inactive: inhibition [2] | inhibition [5] | Activity [20] | Activity [30]
Non-Toxic: Activity [3] | Activity [11] | Activity [13] | Activity [15] | Activity [19] | Activity [22] | Activity [26] | Activity [29]
active: inhibition [4] | inhibition [7] | inhibition [8] | Activity [9] | inhibition [10] | inhibition [12] | inhibition [14] | inhibition [16] | inhibition [17] | inhibition [18] | inhibition [21] | Activity [23] | inhibition [24] | Activity [25] | inhibition [27] | inhibition [28] | inhibition [31]
30%: Activity [6]
